The values below come from EP0093620A1, “Fungicidal N-phenylcarbamates” (priority 1982, dated 1983).

Assay [1] relates to drug-resistant strain of Sphaerotheca fuliginea. Particulars: for pest or weed control at 200 ppm: Podosphaera fuliginea, in Cucumis sativus, topical, 240 h, read-out: Prevention value when inoculated with drug-resistant strain; for Prevention value when inoculated with drug-resistant strain: 200 ppm active ingredient, cucumber seedlings, spray, 10 days after inoculation.
Method: (§1) Protective activity test on powdery mildew of cucumber (Sphaerotheca fuliginea):-
(§2) A flower pot of 90 ml volume was filed with sandy soil, and seeds of cucumber (var: Sagami-hanjiro) were sowed therein. Cultivation was carried out in a greenhouse for 8 days. Onto the resulting seedlings having cotyledons, the test compound formulated in emulsifiable concentrate or wettable powder and diluted with water was sprayed at a rate of 10 ml per pot. Then, the seedlings were inoculated with a spore suspension of the drug-resistant or drug-sensitive strain of Sphaerotheca fuliginea by spraying and further cultivated in the greenhouse. Ten days thereafter, the infectious state of-the plants was observed.
(§3) The leaves examined were measured for a percentage of infected area and classified into the corresponding disease indices, 0, 0.5, 1, 2, 4:
(§4) The disease severity was calculated according to the following equation: [formula]
(§5) The prevention value was calculated according to the following equation: [formula]
Assay [2] deals with drug-sensitive strain of Sphaerotheca fuliginea. Particulars: for pest or weed control at 200 ppm: Podosphaera fuliginea, in Cucumis sativus, topical, 240 h, read-out: Prevention value when inoculated with drug-sensitive strain; for Prevention value when inoculated with drug-sensitive strain: 200 ppm active ingredient, cucumber seedlings, spray, 10 days after inoculation.
Method: as §1, §2, §3, §4, §5
Assay [3] deals with drug-resistant strain of Cercospora beticola. Particulars: for pest or weed control at 200 ppm: Cercospora beticola, in Beta vulgaris, topical, 240 h, read-out: Prevention value when inoculated with drug-resistant strain; for Prevention value when inoculated with drug-resistant strain: 200 ppm active ingredient, sugarbeet seedlings, spray, 10 days.
Method: as §3, §4, §5
(§6) Preventive effect on cercospora leaf spot of sugarbeet (Cercospora beticola):-A flower pot of 90 ml volume was filled with sandy soil, and seeds of sugarbeet (var: Detroit dark red) were sowed therein. Cultivation was carried out in a greenhouse for 20 days. Onto the resulting seedlings, the test compound formulated in emulsifiable concentrate or wettable powder and diluted with water was sprayed at a rate of 10 ml per pot. Then, the seedlings were inoculated with a spore suspension of the drug-resistant or drug-sensitive strain of Cercospora beticola by spraying. The pot was covered with a polyvinyl chloride sheet to make a condition of high humidity, and cultivation was continued in the greenhouse for 10 days.
Assay [4] concerns drug-sensitive strain of Cercospora beticola. To be noted: for pest or weed control at 200 ppm: Cercospora beticola, in Beta vulgaris, topical, 240 h, read-out: Prevention value when inoculated with drug-sensitive strain; for Prevention value when inoculated with drug-sensitive strain: 200 ppm active ingredient, sugarbeet seedlings, spray, 10 days.
Method: as §3, §4, §5, §6
The subject of another assay is Pyricularia oryzae. Particulars: in vivo.
Assay [5] concerns drug-resistant strain of Venturia nashicola. Briefly: Preventive effect on scab of pear, drug-resistant strain. To be noted: 200 ppm active ingredient, pear seedlings, spray.
Method: as §3, §4, §5
(§7) A plastic pot of 90 ml volume was filled with sandy soil, and seeds of pear (var: Chojuro) were sowed . therein. Cultivation was carried out in a greenhouse for 20 days. Onto the resulting seedlings, the test compound formulated in emulsifiable concentrate or wettable powder and diluted with water was sprayed at a rate of 10 ml per pot. Then, the seedlings were inoculated with a spore suspension of the drug-resistant or drug-sensitive strain of Venturia nashicola by spraying. The resulting plants were placed at 20°C under a condition of high humidity for 3 days and then at 20°C under irradiation with a fluorescent lamp for 20 days.
Assay [6] concerns drug-sensitive strain of Venturia nashicola. Briefly: Preventive effect on scab of pear, drug-sensitive strain. Particulars: 200 ppm active ingredient, pear seedlings, spray.
Method: as §3, §4, §5, §7
The subject of assay [7] is drug-resistant strain of Botrytis cinerea. In words: Preventive effect on gray mold of cucumber, drug-resistant strain. To be noted: 200 ppm active ingredient, cucumber seedlings, mycelial disks, 3 days.
Method: as §3, §4, §5
(§8) Preventive effect on gray mold of cucumber (Botrytis cinerea):-
(§9) Plastic pots of 90 ml volume were filled with sandy soil, and seeds of cucumber (var: Sagami-hanjiro) were sowed therein. Cultivation was carried out in a greenhouse for 8 days to obtain cucumber seedlings expanding cotyledons. Onto the resulting seedlings, the test compound formulated in emulsifiable concentrate or wettable powder and diluted with water was sprayed at a rate of 10 ml per pot. After air-drying, the seedlings were inoculated with mycelial disks (5 mm in diameter) of the drug-resistant or drug-sensitive strain of Botrytis cinerea by putting them on the leaf surfaces. After the plants were infected by incubating under high humidity at 20°C for 3 days, the rates of disease severity were observed.
Assay [8] deals with drug-sensitive strain of Botrytis cinerea. Briefly: Preventive effect on gray mold of cucumber, drug-sensitive strain. To be noted: 200 ppm active ingredient, cucumber seedlings, mycelial disks, 3 days.
Method: as §3, §4, §5, §8, §9

`CC(C)OC(=O)Nc1ccccc1` [Propham, isopropyl N-phenylcarbamate]: the pest or weed control at 200 ppm in [1], in assay [2], in assay [3] and in assay [4] was 0% each time.
Regarding `C#CC(C)OC(=O)Nc1cccc(Cl)c1` (stereo not drawn) [Chlorbufam, 1-methyl-2-propynyl N-(3-chlorophenyl)carbamate], the pest or weed control at 200 ppm in assay [1] is 0%; in [2] it was 100%; in assay [3], 0%; in assay [4] it was 100%.
With `CC(C)OC(=O)Nc1cccc(Cl)c1` [Chlorpropham, isopropyl N-(3-chlorophenyl)carbamate], the pest or weed control at 200 ppm in [1], in [2], in [3] and in [4] was 0% throughout.
Take `COC(=O)Nc1ccc(Cl)c(Cl)c1` [Swep]: the “Prevention value when inoculated with drug-resistant strain” value in assay [1] and in [3] was 0% each time. In addition, the “Prevention value when inoculated with drug-sensitive strain” value in [2] and in [4] was 0% in each case.
As for `CCOP(=O)(Sc1ccccc1)Sc1ccccc1` [Edifenphos], the Prevention value in the assay with Pyricularia oryzae amounted to 97%.
For the molecule `COC(=O)NC(=S)Nc1ccccc1NC(=S)NC(=O)OC` [E, 1,2-Bis(3-methoxy-carbonyl-2-thio-ureido)benzene], the “Prevention value when inoculated with drug-resistant strain” value in assay [5] and in [7] was 0% throughout. The “Prevention value when inoculated with drug-sensitive strain” value in [6] and in [8] was 100% in each case. For the same molecule, the pest or weed control at 200 ppm in assay [1] stood at 0%; in [2], 100%; in [3] it was 0%; in assay [4] it was 100%.
Take `COC(=O)Nc1nc2ccccc2[nH]1` [C, Methyl benzimidazol-2-ylcarbamate]: the pest or weed control at 200 ppm was 0% in assay [1], 100% in assay [2], 0% in [3] and 100% in [4].
`CCOc1ccc(N(C(=O)OC(C)C)C(=O)c2ccccc2)cc1COC` [Compound No. 134, isopropyl N-benzoyl-N-(3-methoxymethyl-4-ethoxyphenyl)carbamate]: the “Prevention value when inoculated with drug-resistant strain” value in [7] worked out at 100%. Also, the “Prevention value when inoculated with drug-sensitive strain” value in assay [8] was found to be 0%.
`CCCCNC(=O)n1c(NC(=O)OC)nc2ccccc21` [A, Methyl 1-(butyl-carbamoyl)benz-imidazol-2-yl-carbamate]: the “Prevention value when inoculated with drug-resistant strain” value in assay [5] and in assay [7] was 0% each time. Further, the “Prevention value when inoculated with drug-sensitive strain” value in assay [6] and in assay [8] was 100% each time. Moreover, the pest or weed control at 200 ppm in assay [1] is 0%; in assay [2] it was 100%; in assay [3], 0%; in assay [4], 100%.
Turning to `O=C(Nc1cccc(Cl)c1)OCCCl` [CEPC], the “Prevention value when inoculated with drug-resistant strain” value in assay [1] and in assay [3] was 0% each time. For the same molecule, the “Prevention value when inoculated with drug-sensitive strain” value in assay [2] and in assay [4] was 0% throughout.
Take `O=C(Nc1cccc(Cl)c1)OCC#CCCl` [Barban, 4-chloro-2-butynyl N-(3-chlorophenyl)carbamate]: the pest or weed control at 200 ppm was 25% in [1], 0% in assay [2], 34% in [3] and 0% in [4].
Take `CCOc1ccc(NC(=O)OC(C)C)cc1CC` [Compound No. 50, isopropyl N-(3-ethyl-4-ethoxyphenyl)carbamate]: the “Prevention value when inoculated with drug-resistant strain” value in [5] was determined as 98%; in assay [7], 100%. The “Prevention value when inoculated with drug-sensitive strain” value in [6] and in assay [8] was 0% in each case. The pest or weed control at 200 ppm was determined as 100% in assay [1], 0% in assay [2], 100% in assay [3] and 0% in assay [4].
In the case of `CCOc1ccc(NC(=O)OC(C)C)cc1COC` [compound 77, isopropyl N-(3-methoxymethyl-4-ethoxyphenyl)carbamate], the “Prevention value when inoculated with drug-resistant strain” value in assay [5] and in assay [7] was 100% throughout. In addition, the “Prevention value when inoculated with drug-sensitive strain” value in [6] and in assay [8] was 0% each time. Further, the pest or weed control at 200 ppm in assay [1] was 100%; in [2], 0%; in [3] it was 100%; in assay [4] it was 0%.
